pIC50: −log10 of the molar value. Where a SMILES comes first, the peptide text is derived from it. Bridges are numbered along the chain shown (N, C = ends).
test system: MDA-MB-435; assay: Inhibition of alpha3beta1 integrin-dependent adhesion of MDA-MB-435 cells; type: functional, cell-based; details: Homo sapiens

pIC50 | Compound
4.80 | CC(=O)N[C@H](Cc1ccccc1)C(=O)N[C@@H](C(=O)N[C@H](Cc1ccccc1)C(=O)N[C@H](CCCN=C(N)N)C(=O)N[C@@H](C(=O)N[C@H](CC(N)=O)C(=O)N[C@H](CCC(N)=O)C(=O)N[C@H](CC(C)C)C(=O)N[C@@H](C(=O)NCC(=O)N[C@H](CCC(N)=O)C(=O)N[C@H](Cc1ccccc1)C(N)=O)C(C)C)C(C)C)C(C)C
< 3.52 | NC(=O)C[C@@H]1NC(=O)[C@@H](N)CSSC[C@@H](C(=O)O)NC(=O)[C@H](CCCN=C(N)N)NC(=O)CNC1=O (H-CNGRC-OH; disulfide 1-5)
< 3.52 | CC(C)[C@@H]1NC(=O)[C@H](CC(N)=O)NC(=O)[C@@H](N)CSSC[C@@H](C(=O)O)NC(=O)[C@H](CCCN=C(N)N)NC1=O (H-CNVRC-OH; disulfide 1-5)
3.52 | H-FQGVLQAVRFVF-OH
4.89 | H-FQGVLQDVRFVF-OH
< 3.52 | H-FQGVLQNARFVF-OH
4.77 | H-FQGVLQNLRFVF-OH
< 3.52 | H-FQGVLQNVAFVF-OH
4.57 | H-FQGVLQQVRFVF-OH

From ChEMBL document CHEMBL1137392, “Conformational analysis of an alpha3beta1 integrin-binding peptide from thrombospondin-1: implications for antiangiogenic drug design” (J Med Chem, 2006)
